Residue numbers refer to the chain shown, from its start. pIC50: −log10 of the molar value. Where two headings read alike, the source gives them in different places. Residues, ends and D or L forms follow the SMILES beside them. No end group written: not given here.
Columns and labels:
[1] = system: 12 predominant HLA II molecules; test: Binding to the 12 predominant HLA II molecules, summary; parameters: species or system human; details: for No. of molecules fixed: number of the 12 predominant HLA II molecules bound (IC50 < 1000 nM)
Description: The assays for binding to HLA II molecules are competitive binding assays with immunoenzymatic visualization, as described in U.S. Pat. No. 6,649,166, Texier et al., J. Immunol., 2000, 164, 3177-3184 and Texier et al., Eur. J. Immunol., 2001, 31, 1837-1846, for the HLA-DR molecules, and in PCT international application WO 03/040299 and Castelli et al., J. Immunol., 2002, 169, 6928-6934, for the HLA-DP4 molecule. The use of these assays for measuring the binding activity of peptides derived from various antigens is illustrated in U.S. Pat. No. 6,649,166 and PCT international applications WO 02/090382, WO 03/040299 and WO 2004/014936.
The sensitivity of each assay is reflected by the IC50 values observed with the nonbiotinylated peptides which correspond to the tracers; the IC50 values of the tracers vary by a factor of less than three.

[2] = target: HLA-DR3 (DRB1*0301) (Homo sapiens, UniProt P01903+P01911, A100K/A102G/A103R/A169T/F55Y/I96L/K41T/L162R/M171V/P40S/Q125H/Q178H/Q39Y/R42S/S66N/T106N/T262R/W38E/Y61H); test: biochemical; details: competition with biotinylated tracer; 3 independent experiments; read-out: Binding activity DR3 (IC50)
[3] = target: HLA-DRB5 (DRB5*0101) (Homo sapiens, UniProt P01903+Q30154); test: Competitive HLA II/peptide binding assay, HLA-DRB5; details: competition with biotinylated tracer; 3 independent experiments
[4] = target: HLA-DR13 (DRB1*1301) (Homo sapiens, UniProt P01903+P01911, A100E/A169T/K41T/L162R/M171V/P40S/Q125H/Q178H/Q39Y/Q99D/R42S/S66N/T262R/W38E/Y61H); test: Competitive HLA II/peptide binding assay, HLA-DR13
[5] = system: HLA-DP4-restricted CD4+ T lymphocyte lines; test: Immunogenicity in an HLA-DP4 context, IFN-γ ELISPOT; format: cell-based, human; details: for Number of spots: peptide presented by HLA-DP4, mean (±SD)
Description: HLA-DP4-restricted survivin-specific CD4+ T lymphocyte lines were produced using the mixture of peptides 84-98, 93-107, 90-104 and 19-33 for the stimulation of the autologous dendritic cells, according to a protocol similar to that use for the production of T lymphocyte lines restricted to the set of HLA-DR molecules predominant in the Caucasian population.
The anti-IFN-γ human monoclonal antibody 1-D1K (MABTECH), diluted to 10 μg/ml in PBS buffer, was adsorbed onto nitrocellulose plates (Multiscreen HA; Millipore) for 1 hour at 37° C. The plates were subsequently washed with PBS and then saturated with complete IMDM medium (100 μl/well), for 1 h at 37° C. The antigen-presenting cells are autologous PBMCs, immature autologous dendritic cells prepared as specified above, or a mouse fibroblast line (line L), transfected with the cDNA encoding one of the HLA-DR or HLA-DP4 molecules to be tested (Yu et al. Hum. Immunol. 1990, 27, 132-135), so as to verify the specificity of the lines with respect to the HLA-DR and HLA-DP4 molecules. The antigen-presenting cells (10^5 autologous PBMCs, 3×10^4 transfected L cells or 2×10^4 immature autologous dendritic cells) and the CD4+ T lymphocytes to be tested (10^4 CD4+ T lymphocytes) were subsequently added to the plates and incubated for 24 h at 37° C., in the presence or absence of a single peptide (2 μg), of a mixture of peptides (2 μg of each peptide) or of a protein (Bir5 or Nef). The proteins (1 μM) are incubated for 4 h at 37° C. in the presence of immature dendritic cells, and then washed. The peptides are added directly to the plates. For the dose-response analyses, the peptides are used at various concentrations ranging from 10^−5 to 10^−10 M. After three successive washes with water, and then with PBS buffer-0.05% Tween and, finally, with PBS alone, 100 μl of biotin-conjugated anti-IFN-γ secondary antibody (7-B6-1-biotin, MABTECH), diluted to 0.25 μg/ml in PBS containing 1% BSA, were added to each well. After incubation for one hour, the plates were washed again and incubated with 100 μl/well of extravidin-phosphatase (E-2636, SIGMA), diluted to 1/6000. After washing of the plates in PBS buffer, 100 μl of NBT/BCIP substrate (B-5655, SIGMA), diluted in water (one tablet in 10 ml of water), were distributed into each well. The immunoenzymatic revelation was stopped after approximately 10 minutes by thorough rinsing of the plates in water, and the colored spots were counted using an automatic reader (ELISPOT reader system, AID). The lines are considered to be positive when the number of spots is greater than three times that obtained with the negative control (control without peptides) with a minimum of 50 spots. The control without presenting cells makes it possible to verify the specificity of the response for HLA-DR or HLA-DP4 (restriction control).

[6] = target: T1, HLA-DP401 (DP*0401) (Homo sapiens, UniProt P04440+P20036); test: biochemical; details: competition with biotinylated tracer; 3 independent experiments; read-out: Binding activity DP401 (IC50)
T1 sequence (P04440 30-258): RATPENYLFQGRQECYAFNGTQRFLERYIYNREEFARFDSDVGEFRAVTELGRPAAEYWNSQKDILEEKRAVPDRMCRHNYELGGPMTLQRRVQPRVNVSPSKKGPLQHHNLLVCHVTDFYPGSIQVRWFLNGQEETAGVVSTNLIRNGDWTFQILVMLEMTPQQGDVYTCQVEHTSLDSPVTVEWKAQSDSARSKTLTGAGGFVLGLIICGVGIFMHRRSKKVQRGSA
T1 sequence (P20036 29-260): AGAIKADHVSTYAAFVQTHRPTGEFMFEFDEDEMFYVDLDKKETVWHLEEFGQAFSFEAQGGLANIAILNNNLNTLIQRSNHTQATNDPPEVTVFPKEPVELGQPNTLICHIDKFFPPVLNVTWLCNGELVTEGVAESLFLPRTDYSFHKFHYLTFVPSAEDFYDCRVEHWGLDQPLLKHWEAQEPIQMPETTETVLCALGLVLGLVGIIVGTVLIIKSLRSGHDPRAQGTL

[7] = target: T2, HLA-DP402 (DP*0402) (Homo sapiens, UniProt P04440+P20036, A65V/A84D/A85E/L207M); test: biochemical; details: competition with biotinylated tracer; 3 independent experiments; read-out: Binding activity DP402 (IC50)
T2 sequence (P04440 30-258 A65V/A84D/A85E): T1 sequence (P04440 30-258) with A36V, A55D, A56E
T2 sequence (P20036 29-260): T1 sequence (P20036 29-260)

[8] = target: HLA-DR15 (DRB1*1501) (Homo sapiens, UniProt P01903+P01911); test: Competitive HLA II/peptide binding assay, HLA-DR15; details: competition with biotinylated tracer; 3 independent experiments
[9] = target: HLA-DRB4 (DRB4*0101) (Homo sapiens, UniProt P01903+P13762, G164S); test: Competitive HLA II/peptide binding assay, HLA-DRB4; details: competition with biotinylated tracer; 3 independent experiments

For `CC(C)C[C@H](NC(=O)[C@H](Cc1ccccc1)NC(=O)[C@@H]1CCCN1C(=O)[C@H](Cc1c[nH]c2ccccc12)NC(=O)[C@H](CC(N)=O)NC(=O)[C@@H](N)CCCCN)C(=O)N[C@@H](CCC(=O)O)C(=O)NCC(=O)N[C@@H](CS)C(=O)N[C@@H](C)C(=O)N[C@@H](CS)C(=O)N[C@H](C(=O)N1CCC[C@H]1C(=O)N[C@@H](CCC(=O)O)C(=O)N[C@@H](CCCNC(=N)N)C(=O)O)[C@@H](C)O` [23-37, K N W P F L E G C A C T P E R] (H-KNWPFLEGCACTPER-OH; N-terminus and C-terminus assumed), the “No. of molecules fixed” value [1] was 1.
“LSVKKQFEELTLGEF [87-101, L S V K K Q F E E L T L G E F]” was tested, and the pIC50 [2] was under 4.00, the “No. of molecules fixed” value [1] was 2 and the pIC50 [3] was 5.22. It also gave a pIC50 ([4]; competition with biotinylated tracer, 3 independent experiments, read-out: Binding activity DR13 (IC50)) of under 4.00.
For `CC(C)C[C@H](NC(=O)[C@H](CC(=O)O)NC(=O)[C@@H]1CCCN1)C(=O)N[C@@H](C)C(=O)N[C@@H](CCC(N)=O)C(=O)N[C@@H](CS)C(=O)N[C@@H](Cc1ccccc1)C(=O)N[C@@H](Cc1ccccc1)C(=O)N[C@@H](CS)C(=O)N[C@@H](Cc1ccccc1)C(=O)N[C@@H](CCCCN)C(=O)N[C@@H](CCC(=O)O)C(=O)N[C@@H](CC(C)C)C(=O)N[C@@H](CCC(=O)O)C(=O)NCC(=O)O` [52-66, P D L A Q C F F C F K E L E G] (H-PDLAQCFFCFKELEG-OH; N-terminus and C-terminus assumed), the “Binding specificity for HLA II molecules” value [1] was “bind only to the HLA-DR11 molecule” and the “No. of molecules fixed” value [1] was 1.
In the case of “QPFLKDHRISTFKNW [11-25, Q P F L K D H R I S T F K N W]”, the “No. of molecules fixed” value [1] was 2.
In the case of `CC[C@H](C)[C@H](N)C(=O)N[C@@H](CO)C(=O)N[C@H](C(=O)N[C@@H](Cc1ccccc1)C(=O)N[C@@H](CCCCN)C(=O)N[C@@H](CC(N)=O)C(=O)N[C@@H](Cc1c[nH]c2ccccc12)C(=O)N1CCC[C@H]1C(=O)N[C@@H](Cc1ccccc1)C(=O)N[C@@H](CC(C)C)C(=O)N[C@@H](CCC(=O)O)C(=O)NCC(=O)N[C@@H](CS)C(=O)N[C@@H](C)C(=O)N[C@@H](CS)C(=O)O)[C@@H](C)O` [peptide 19-33, I S T F K N W P F L E G C A C], the Number of spots ([5]; donor 169, line 169-14) was 1 (±0), the Number of spots ([5]; donor 169, line 169-34) was 228 (±17) and the Number of spots ([5]; donor 169, line 169-56) was 195 (±0). For the same compound, the Number of spots ([5]; donor 171, line 171-3) was 5 (±0), the “Immunogenicity in an HLA-DP4 context” value ([5]; mixture of peptides 84-98, 93-107, 90-104 and 19-33 used for stimulation) was “immunogenic in an HLA-DP4 context” and the “No. of molecules fixed” value [1] was 7.
With `CC(C)C[C@H](NC(=O)[C@H](CCC(=O)O)NC(=O)[C@H](CCCCN)NC(=O)[C@H](Cc1ccccc1)NC(=O)[C@H](CS)NC(=O)[C@H](Cc1ccccc1)NC(=O)[C@H](Cc1ccccc1)NC(=O)[C@H](CS)NC(=O)[C@@H](N)CCC(N)=O)C(=O)N[C@@H](CCC(=O)O)C(=O)NCC(=O)N[C@@H](Cc1c[nH]c2ccccc12)C(=O)N[C@@H](CCC(=O)O)C(=O)N1CCC[C@H]1C(=O)N[C@@H](CC(=O)O)C(=O)O` [56-70, Q C F F C F K E L E G W E P D] (H-QCFFCFKELEGWEPD-OH; N-terminus and C-terminus assumed) the “No. of molecules fixed” value [1] was 1.
With “TERVRLVTRHIYNREE [B1 21-36, reference compound]” the IC50 ([4]; DRB1*1301, tracer 100 nM, pH 4.5, 72 h, read-out: IC50 (nM) of nonbiotinylated tracer peptide) was 800 nM.
For `CC[C@H](C)[C@H](NC(=O)[C@H](CCCCN)NC(=O)[C@@H](N)CC(N)=O)C(=O)N[C@@H](C)C(=O)N[C@@H](CCCCN)C(=O)N[C@@H](CCC(=O)O)C(=O)N[C@H](C(=O)N[C@@H](CC(N)=O)C(=O)N[C@@H](CC(N)=O)C(=O)N[C@@H](CCCCN)C(=O)N[C@@H](CCCCN)C(=O)N[C@@H](CCCCN)C(=O)N[C@@H](CCC(=O)O)C(=O)N[C@@H](Cc1ccccc1)C(=O)N[C@@H](CCC(=O)O)C(=O)O)[C@@H](C)O` [111-125, N K I A K E T N N K K K E F E], the “No. of molecules fixed” value [1] was 1, the pIC50 [6] was under 4.00 and the pIC50 [7] was under 4.00.
In the case of `CC[C@H](C)[C@H](NC(=O)[C@H](CCCNC(=N)N)NC(=O)[C@H](Cc1c[nH]cn1)NC(=O)[C@H](CC(=O)O)NC(=O)[C@H](CCCCN)NC(=O)[C@H](CC(C)C)NC(=O)[C@H](Cc1ccccc1)NC(=O)[C@@H]1CCCN1C(=O)[C@H](CCC(N)=O)NC(=O)[C@H](Cc1c[nH]c2ccccc12)NC(=O)[C@H](C)NC(=O)[C@@H]1CCCN1)C(=O)N[C@@H](CO)C(=O)N[C@H](C(=O)N[C@@H](Cc1ccccc1)C(=O)O)[C@@H](C)O` [8-22, P A W Q P F L K D H R I S T F], the “No. of molecules fixed” value [1] was 1, the pIC50 [8] was 5.28 and the pIC50 [9] was 4.54. It also gave a pIC50 [7] of 4.98.
With “E E L T L G E F L K L D R E R (EELTLGEFLKLDRER; listed as Homo sapiens) [94-108, 15-mer of human survivin, positions 94-108; insoluble peptide]” the “No. of molecules fixed” value [1] was 0.

— US9687539B2, “CD4+ T survivin epitopes and uses thereof” (Commissariat a I'Energie Atomique, priority 2005, dated 2017)
